Measured values: publication PMC5796017, “Enantiomeric Effect of D-Amino Acid Substitution on the Mechanism of Action of α-Helical Membrane-Active Peptides” (International Journal of Molecular Sciences, 2017)
In brackets after ≈: the same amount, converted by molar mass.

Key:
S. epidermidis ATCC12228 = assay: Antimicrobial activity, microtiter dilution MIC; assay type: cell-based, Staphylococcus epidermidis; settings: G+; MH medium, 5 × 10^5 CFU/mL, 37 °C, 24 h, triplicate
In short: (§1)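 Broth microdilution in Mueller–Hinton medium, inoculum 5 × 10^5 CFU/mL, serially diluted peptide, 24 h at 37 °C. MIC taken as lowest peptide concentration preventing growth; triplicate runs.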

E. coli ATCC25922 [1] = assay: Outer membrane permeability assay (NPN uptake); assay type: cell-based, Escherichia coli; settings: 16 μM peptide, 10 min, excitation 350 nm, emission 420 nm
Description: To explore the potential role of the helicity of the peptides in damaging cell membranes, we investigated the disruption of the outer membrane of Escherichia coli (E. coli) by quantifying the fluorescence intensity of 1-N-phenylnaphthylamine (NPN), which is a hydrophobic fluorescent probe. The intensity of NPN is weak in a hydrophilic environment. The fluorescence intensity of NPN gradually increases as it is exposed to a more hydrophobic environment due to damage to the bacterial outer membrane by MAPs.
The outer membrane permeability of the peptides against E. coli ATCC25922 was evaluated using the hydrophobic fluorescent probe NPN, as performed previously. In brief, E. coli was cultured in LB medium at 37 °C until the absorbance of the bacterial suspension at 600 nm was 0.4–0.6, the bacterial pellet was collected by centrifugation and resuspended in a reaction buffer (pH 7.4, 5 mM HEPES, 5 mM NaN3, 0.25 mM NPN) until the absorbance at 600 nm was 0.5. Then, an aliquot of the peptide sample and the bacterial suspension were co-incubated to give a final peptide concentration of 16 μM. The same volume of reaction buffer was used as the negative control. A Shimadzu RF-5301 PC fluorescent spectrometer (excitation wavelength of 350 nm, emission wavelength of 420 nm) was used to collect data continuously for 10 min.

[2] = RP-HPLC retention time as relative hydrophobicity; assay type: physicochemical; settings: 25 °C, used by the paper as measure of relative hydrophobicity
Protocol: The RP-HPLC retention time has been widely used to represent the relative hydrophobicity of peptides in many studies.The relative hydrophobicity of the peptides was determined by the RP-HPLC retention times at 25 °C. The change in hydrophobicity of the peptides caused by D-amino acid substitutions was mainly due to the disruption of the helical structure.

E. coli ATCC25922 [3] = assay: Antimicrobial activity, microtiter dilution MIC; assay type: cell-based, Escherichia coli; settings: G−; MH medium, 5 × 10^5 CFU/mL, 37 °C, 24 h, triplicate
In short: as §1

[4] = Circular dichroism (CD) secondary structure; assay type: physicochemical
In short: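 Peptide secondary structure was measured by circular dichroism on a Jasco J-810 CD spectrometer at 25 °C, in benign KP buffer to mimic a hydrophilic environment and in 50% 2,2,2-trifluoroethanol (benign buffer: TFE = 1:1, vol/vol) to mimic a membrane-like hydrophobic environment. Mean residue molar ellipticity at 222 nm, [θ]222 (degree·cm^2·dmol^−1), calculated as [θ] = θ/10lCMn, gave relative helical content.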

CC[C@H](C)[C@H](NC(=O)[C@H](C)NC(=O)[C@H](CCCCN)NC(=O)[C@H](CC(C)C)NC(=O)[C@H](C)NC(=O)[C@@H](NC(=O)[C@H](Cc1cnc[nH]1)NC(=O)[C@H](CC(C)C)NC(=O)[C@@H](NC(=O)[C@@H](NC(=O)[C@H](CCCCN)NC(=O)[C@H](CCCCN)NC(=O)[C@H](C)NC(=O)[C@H](CO)NC(=O)[C@H](CCCCN)NC(=O)[C@H](Cc1ccccc1)NC(=O)[C@@H](NC(=O)[C@H](CCCCN)NC(=O)[C@H](CC(C)C)NC(=O)[C@H](Cc1ccccc1)NC(=O)[C@H](CO)NC(=O)[C@H](CCCCN)NC(=O)[C@H](Cc1c[nH]c2ccccc12)NC(=O)[C@H](CCCCN)NC(C)=O)[C@@H](C)O)[C@@H](C)O)C(C)C)[C@@H](C)O)C(=O)N[C@@H](CO)C(=O)N[C@@H](CO)C(N)=O [Peptide V13K]
MIC (S. epidermidis ATCC12228): 4 µM (≈ 12 µg/mL) | Outer membrane permeabilization, NPN fluorescence intensity (E. coli ATCC25922 [1]): enhanced | tR (RP-HPLC retention time), relative hydrophobicity [2]: 44.48 min | MIC (E. coli ATCC25922 [3]): 8 µM (≈ 23.9 µg/mL) | [θ]222, benign ([4]; CD, KP buffer (100 mM KCl, 50 mM KH2PO4/K2HPO4, pH 7.4), 75 μM peptide, 25 °C): −5617.46 degree·cm^2·dmol^−1 | [θ]222, 50% TFE ([4]; CD, KP buffer with 50% TFE, 75 μM peptide, 25 °C): −50,520.3 degree·cm^2·dmol^−1 | α-Helix (%), 50% TFE (relative helicity) ([4]; KP buffer with 50% TFE, relative to molar ellipticity of V13K in 50% TFE): 100% | α-Helix (%), benign ([4]; KP buffer, relative to molar ellipticity of V13K in 50% TFE): 11.1%
